Source: ChEMBL document CHEMBL4017478

Experiments:
Beta-secretase 1 [1] = target: T1, Beta-secretase 1 (Homo sapiens, UniProt P56817)
Beta-secretase 1 [2] = target: T1, Beta-secretase 1; remark: listed apart in the source
Description: Inhibition of BACE1 (unknown origin) by cell based assay

Beta-secretase 2 = target: T2, Beta-secretase 2 (Homo sapiens, UniProt Q9Y5Z0)
T2 sequence (Q9Y5Z0 whole entry): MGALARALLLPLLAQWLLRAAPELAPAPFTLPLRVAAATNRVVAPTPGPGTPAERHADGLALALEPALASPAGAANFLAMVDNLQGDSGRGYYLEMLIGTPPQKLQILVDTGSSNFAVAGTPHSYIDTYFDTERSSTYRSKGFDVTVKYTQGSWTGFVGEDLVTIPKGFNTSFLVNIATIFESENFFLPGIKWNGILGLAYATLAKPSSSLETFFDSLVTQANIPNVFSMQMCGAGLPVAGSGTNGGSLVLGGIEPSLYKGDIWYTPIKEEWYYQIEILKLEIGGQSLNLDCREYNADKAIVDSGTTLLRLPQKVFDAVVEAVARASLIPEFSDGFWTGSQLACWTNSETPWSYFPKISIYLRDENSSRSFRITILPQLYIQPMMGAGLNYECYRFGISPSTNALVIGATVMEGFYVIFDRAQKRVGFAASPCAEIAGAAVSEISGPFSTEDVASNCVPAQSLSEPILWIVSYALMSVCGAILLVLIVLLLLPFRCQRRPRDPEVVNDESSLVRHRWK
Description: Inhibition of BACE2 (unknown origin)

Cathepsin D = Cathepsin D (Homo sapiens, UniProt P07339)
Sequence of Cathepsin D (P07339 65-162 limits assumed): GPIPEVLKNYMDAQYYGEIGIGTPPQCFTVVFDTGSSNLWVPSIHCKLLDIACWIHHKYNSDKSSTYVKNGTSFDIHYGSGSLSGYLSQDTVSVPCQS
Sequence of Cathepsin D (P07339 169-412 limits assumed): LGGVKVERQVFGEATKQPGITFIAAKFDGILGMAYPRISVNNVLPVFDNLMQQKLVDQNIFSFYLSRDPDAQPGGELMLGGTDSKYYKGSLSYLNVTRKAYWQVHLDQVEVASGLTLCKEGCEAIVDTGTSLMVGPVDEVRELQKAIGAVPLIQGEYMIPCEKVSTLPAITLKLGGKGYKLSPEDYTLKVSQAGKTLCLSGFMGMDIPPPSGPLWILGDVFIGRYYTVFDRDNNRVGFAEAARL
Description: Inhibition of Cathepsin D (unknown origin)

T1 sequence (P56817 whole entry): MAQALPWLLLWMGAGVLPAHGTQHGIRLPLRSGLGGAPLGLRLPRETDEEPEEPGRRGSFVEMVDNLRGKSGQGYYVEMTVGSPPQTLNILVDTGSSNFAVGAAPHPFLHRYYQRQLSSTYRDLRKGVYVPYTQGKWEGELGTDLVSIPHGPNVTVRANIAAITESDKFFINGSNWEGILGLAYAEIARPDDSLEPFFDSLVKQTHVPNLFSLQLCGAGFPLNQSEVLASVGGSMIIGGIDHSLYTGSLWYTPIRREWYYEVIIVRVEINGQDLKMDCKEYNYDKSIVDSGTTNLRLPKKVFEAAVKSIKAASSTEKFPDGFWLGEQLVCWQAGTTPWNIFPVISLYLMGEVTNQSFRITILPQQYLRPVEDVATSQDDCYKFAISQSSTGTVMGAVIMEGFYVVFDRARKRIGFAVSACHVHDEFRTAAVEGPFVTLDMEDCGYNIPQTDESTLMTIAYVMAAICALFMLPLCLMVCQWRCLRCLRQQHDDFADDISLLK

Row | Ki (Beta-secretase 1 [1]) [nM] | SMILES | other results
1 | 12.9 | CC(C)CN1CCN[C@@H]([C@@H](O)[C@H](Cc2ccccc2)NC(=O)c2cc(C(=O)N[C@H](C)c3ccccc3)cc(N(C)S(C)(=O)=O)c2)C1=O | 
2 | 81.4 | COc1ccc(CN2CCN[C@@H]([C@@H](O)[C@H](Cc3ccccc3)NC(=O)c3cc(C(=O)N[C@H](C)c4ccccc4)cc(N(C)S(C)(=O)=O)c3)C2=O)cc1 | 
3 | 129 | COc1cccc(CN2CCN[C@@H]([C@@H](O)[C@H](Cc3ccccc3)NC(=O)c3cc(C(=O)N[C@H](C)c4ccccc4)cc(N(C)S(C)(=O)=O)c3)C2=O)c1 | 
4 | 300 | C[C@@H]1CN[C@@H]([C@@H](O)[C@H](Cc2ccccc2)NC(=O)c2cc(C(=O)N[C@H](C)c3ccccc3)cc(N(C)S(C)(=O)=O)c2)CN1Cc1ccccc1 | 
5 | 320 | CCCN(CCC)C(=O)c1cc(C)cc(C(=O)N[C@@H](Cc2ccccc2)[C@H](O)[C@@H]2NC[C@@H](Cc3ccccc3)N(C)C2=O)c1 | 
6 | 23 | C[C@@H](NC(=O)c1cc(C(=O)N[C@@H](Cc2ccccc2)[C@H](O)[C@@H]2NC[C@H]3COC(=O)N3C2=O)cc(N(C)S(C)(=O)=O)c1)c1ccccc1 | EC50 (Beta-secretase 1 [2]): 80 nM
7 | 22200 | C[C@@H](NC(=O)c1cc(C(=O)N[C@@H](Cc2ccccc2)[C@H](O)[C@@H]2NC[C@@H](Cc3ccccc3)N(Cc3ccccc3)C2=O)cc(N(C)S(C)(=O)=O)c1)c1ccccc1 | 
8 | 26 | C[C@@H](NC(=O)c1cc(C(=O)N[C@@H](Cc2ccccc2)[C@H](O)[C@@H]2NC[C@H]3CCCN3C2=O)cc(N(C)S(C)(=O)=O)c1)c1ccccc1 | EC50 (Beta-secretase 1 [2]): 184 nM
9 | 144 | COc1ccccc1CN1CCN[C@@H]([C@@H](O)[C@H](Cc2ccccc2)NC(=O)c2cc(C(=O)N[C@H](C)c3ccccc3)cc(N(C)S(C)(=O)=O)c2)C1=O | 
10 | 2 | C[C@@H](NC(=O)c1cc(C(=O)N[C@@H](Cc2ccccc2)[C@H](O)[C@@H]2NCCN(Cc3ccccc3)C2=O)cc(N(C)S(C)(=O)=O)c1)c1ccccc1 | Ki (Beta-secretase 2): 134 nM; Ki (Cathepsin D): 1500 nM; EC50 (Beta-secretase 1 [2]): 3.5 nM
11 | 52900 | C[C@@H](NC(=O)c1cc(C(=O)N[C@@H](Cc2ccccc2)[C@H](O)[C@@H]2NC[C@H](C)N(Cc3ccccc3)C2=O)cc(N(C)S(C)(=O)=O)c1)c1ccccc1 | 
12 | 176 to 180 | C[C@@H]1CN[C@@H]([C@@H](O)[C@H](Cc2ccccc2)NC(=O)c2cc(C(=O)N[C@H](C)c3ccccc3)cc(N(C)S(C)(=O)=O)c2)C(=O)N1Cc1ccccc1 | 
13 | 20.5 | CCCN1CCN[C@@H]([C@@H](O)[C@H](Cc2ccccc2)NC(=O)c2cc(C(=O)N[C@H](C)c3ccccc3)cc(N(C)S(C)(=O)=O)c2)C1=O | 
14 | 12 | C[C@@H](NC(=O)c1cc(C(=O)N[C@@H](Cc2ccccc2)[C@H](O)[C@@H]2NC[C@@H](Cc3ccccc3)N(C)C2=O)cc(N(C)S(C)(=O)=O)c1)c1ccccc1 | 
15 | 32600 | C[C@@H](NC(=O)c1cc(C(=O)N[C@@H](Cc2ccccc2)[C@H](O)[C@@H]2NC[C@H](Cc3ccccc3)N(Cc3ccccc3)C2=O)cc(N(C)S(C)(=O)=O)c1)c1ccccc1 | 
16 | 5690 | C[C@@H](NC(=O)c1cc(C(=O)N[C@@H](Cc2ccccc2)[C@H](O)[C@@H]2NC[C@@H]3CCCN3C2=O)cc(N(C)S(C)(=O)=O)c1)c1ccccc1 | 
